In brackets after ≈: the same amount, converted by molar mass. Structures can show the parent of a compound that is named as a salt. Where two headings read alike, the source gives them in different places.
What was measured:
[1] = tested on: Streptococcus pneumoniae Park I; test: microbe, parasite or virus in culture; type: cell-based; settings: Streptococcus pneumoniae
Procedure: (§1) Especially noteworthy is the improved activity against gram-negative bacteria for several derivatives when compared to the activity of OMT. […] The MIC's in Tables V and VI were determined by standard agar-dilution assays. The MIC's in Table VII were obtained using a conventional broth-dilution microtiter test.

[2] = tested on: Haemophilus influenzae Holt; test: MIC, standard agar-dilution assay (Table V); type: cell-based; settings: Haemophilus influenzae
Procedure: (§2) The MIC's in Tables V and VI were determined by standard agar-dilution assays. The MIC's in Table VII were obtained using a conventional broth-dilution microtiter test.

[3] = tested on: Escherichia coli TEM; test: MIC, standard agar-dilution assay (Table V); type: cell-based; settings: Escherichia coli
Procedure: as §2

[4] = tested on: Streptococcus pyogenes C203; test: MIC, standard agar-dilution assay (Table V); type: cell-based; settings: Streptococcus pyogenes
Procedure: as §2

[5] = tested on: Haemophilus influenzae R252; test: MIC, standard agar-dilution assay (Table V); type: cell-based; settings: Haemophilus influenzae
Procedure: as §2

[6] = tested on: Pasteurella hemolytica 22C; test: MIC, broth-dilution microtiter test (Table VII); type: cell-based; settings: Pasteurella, P. hemolytica 22C, read-out: MIC
Procedure: as §1

[7] = tested on: Mycoplasma gallisepticum; test: MIC, broth-dilution microtiter test (Table VII); type: cell-based; settings: Mycoplasmoides gallisepticum
Procedure: as §1

[8] = tested on: Pasteurella multocida 60A; test: MIC, broth-dilution microtiter test (Table VII); type: cell-based; settings: Pasteurella multocida
Procedure: as §1

[9] = tested on: Pasteurella hemolytica 41D; test: MIC, broth-dilution microtiter test (Table VII); type: cell-based; settings: Pasteurella, P. hemolytica 41D, read-out: MIC
Procedure: as §1

[10] = tested on: Pasteurella multocida 17E; test: MIC, broth-dilution microtiter test (Table VII); type: cell-based; settings: Pasteurella multocida
Procedure: as §1

[11] = tested on: Streptococcus sp. 80; test: MIC, broth-dilution microtiter test (Table VII); type: cell-based; settings: Streptococcus sp. 80; broth-dilution microtiter; read-out: MIC
Procedure: as §1

[12] = tested on: Staphylococcus aureus; test: MIC, broth-dilution microtiter test (Table VII); type: cell-based; settings: Staphylococcus aureus
Procedure: as §1

[13] = tested on: Pasteurella multocida 22A; test: MIC, broth-dilution microtiter test (Table VII); type: cell-based; settings: Pasteurella multocida; P. multocida 22A; broth-dilution microtiter; read-out: MIC
Procedure: as §1

[14] = tested on: Pasteurella multocida 40G; test: MIC, broth-dilution microtiter test (Table VII); type: cell-based; settings: Pasteurella multocida; P. multocida 40G; broth-dilution microtiter; read-out: MIC
Procedure: as §1

[15] = tested on: Mycoplasma hyorhinis; test: MIC, broth-dilution microtiter test (Table VII); type: cell-based
Procedure: as §1

[16] = tested on: Mycoplasma synoviae; test: MIC, broth-dilution microtiter test (Table VII); type: cell-based; settings: Mycoplasmopsis synoviae
Procedure: as §1

[17] = tested on: Pasteurella hemolytica 23C; test: MIC, broth-dilution microtiter test (Table VII); type: cell-based; settings: Pasteurella, P. hemolytica 23C, read-out: MIC
Procedure: as §1

[18] = tested on: Pasteurella multocida 68C; test: MIC, broth-dilution microtiter test (Table VII); type: cell-based; settings: Pasteurella multocida
Procedure: as §1

[19] = tested on: Staphylococcus aureus S13E; test: MIC, standard agar-dilution assay (Table V); type: cell-based; settings: Staphylococcus aureus, S13E
Procedure: as §1

[20] = tested on: Staphylococcus epidermidis EPI2; test: MIC, standard agar-dilution assay (Table V); type: cell-based; settings: Staphylococcus epidermidis
Procedure: as §1

[21] = tested on: Staphylococcus aureus X1.1; test: MIC, standard agar-dilution assay (Table V); type: cell-based; settings: Staphylococcus aureus, X1.1
Procedure: as §1

[22] = tested on: Klebsiella pneumoniae X26; test: MIC, standard agar-dilution assay (Table V); type: cell-based; settings: Klebsiella pneumoniae
Procedure: as §1

[23] = tested on: Escherichia coli EC14; test: MIC, standard agar-dilution assay (Table V); type: cell-based; settings: Escherichia coli, EC14
Procedure: as §1

[24] = tested on: Shigella sonnei N9; test: MIC, standard agar-dilution assay (Table V); type: cell-based
Procedure: as §1

[25] = tested on: Staphylococcus aureus V41; test: MIC, standard agar-dilution assay (Table V); type: cell-based; settings: Staphylococcus aureus, V41
Procedure: as §1

[26] = tested on: Streptococcus Group 9960; test: MIC, standard agar-dilution assay (Table V); type: cell-based; settings: GROUP9960
Procedure: as §1

[27] = tested on: Escherichia coli N10; test: MIC, standard agar-dilution assay (Table V); type: cell-based; settings: Escherichia coli, N10
Procedure: as §1

[28] = tested on: Staphylococcus aureus X400; test: MIC, standard agar-dilution assay (Table V); type: cell-based; settings: Staphylococcus aureus
Procedure: as §1

[29] = tested on: Staphylococcus epidermidis EPI1; test: MIC, standard agar-dilution assay (Table V); type: cell-based; settings: Staphylococcus epidermidis
Procedure: as §1

[30] = tested on: Streptococcus Group D X66; test: MIC, standard agar-dilution assay (Table V); type: cell-based
Procedure: as §1

[31] = tested on: Klebsiella pneumoniae KAE; test: MIC, standard agar-dilution assay (Table V); type: cell-based; settings: Klebsiella pneumoniae
Procedure: as §1

[32] = tested on: Pasteurella multocida; test: Protection of one-day-old chicks against Pasteurella multocida infection (Table IX); type: in vivo; settings: subcutaneous 30 mg/kg × 2, 1 and 4 hours post-challenge
Procedure: The C-23 modified derivatives of OMT have also shown in vivo antibacterial activity against infections induced by gram-negative bacteria. Table IX summarizes the results of tests in which illustrative compounds were evaluated against Pasteurella infections in one-day-old chicks. The compounds were administered by subcutaneous injection at a dosage of 30 mg/kg, 1 and 4 hours post-challenge of the chicks with Pasteurella multocida (0.1 ml of a twenty-hour tryptose broth culture of an avian P. multocida given subcutaneously). In the tests, all ten non-medicated infected chicks died within 24 hours of Pasteurella challenge.

[33] = tested on: Streptococcus pyogenes C203; test: ED50 in mice experimentally infected with S. pyogenes C203 (Table VIII); type: in vivo
Procedure: The C-23 modified derivatives of OMT of this invention have shown in vivo antimicrobial activity against experimental infections. When two doses of test compound were administered to mice experimentally infected with a gram-positive bacterium, S. pyogenes C203, the activity observed was measured as an ED50 value [effective dose in mg/kg to protect 50% of the test animals: see Warren Wick, et al., J. Bacteriol. 81, 233-235 (1961)].

[34] = S. pneumoniae Park I, agar dilution, read-out: MIC
[35] = S. pyogenes C203, agar dilution, read-out: MIC
[36] = S. aureus, broth-dilution microtiter, read-out: MIC
[37] = M. hyorhinis, broth-dilution microtiter, read-out: MIC
[38] = M. synoviae, broth-dilution microtiter, read-out: MIC
[39] = P. multocida 68C, broth-dilution microtiter, read-out: MIC
[40] = K. pneumoniae X26, agar dilution, read-out: MIC
[41] = S. epidermidis EPI1, agar dilution, read-out: MIC
[42] = C203, sc, mice, subcutaneous, doses given 1 and 4 hours postinfection, read-out: ED50, Subcutaneous

Row | Compound | MIC [1, 34] [µg/mL] | MIC [2] [µg/mL] | MIC [3] [µg/mL] | MIC [4, 35] [µg/mL] | MIC ([5]; R252) [µg/mL] | MIC [6] [µg/mL] | MIC [9] [µg/mL] | MIC [11] [µg/mL] | MIC [12, 36] [µg/mL] | MIC [13] [µg/mL] | MIC [14] [µg/mL] | MIC [17] [µg/mL] | MIC [19] [µg/mL] | MIC [21] [µg/mL] | MIC [23] [µg/mL] | MIC [24] [µg/mL] | MIC [25] [µg/mL] | MIC [27] [µg/mL] | MIC [31] [µg/mL] | Number of deaths/number treated [32] | also measured
1 | CCC1OC(=O)CC(O)C(C)C(OC2OC(C)C(O)C(N(C)C)C2O)C(CC=O)CC(C)C(=O)C=CC(C)=CC1CNC(=O)[C@H](NC(=O)OC(C)(C)C)c1ccccc1 (single isomer, unassigned) [Compound 11, 23-Deoxy-23-[(D)-(-)-(N-t-BOC-phenylglycyl)amino]-OMT] | 0.25 (≈ 0.301 µM) | 8 (≈ 9.64 µM) | > 128 | 0.5 (≈ 0.602 µM) | 8 (≈ 9.64 µM) | 25 (≈ 30.1 µM) | 50 (≈ 60.2 µM) | 0.78 (≈ 0.94 µM) | 3.12 (≈ 3.76 µM) | 12.5 (≈ 15.1 µM) | 12.5 (≈ 15.1 µM) | 25 (≈ 30.1 µM) | 2 (≈ 2.41 µM) | 1 (≈ 1.2 µM) | > 128 | > 128 | 2 (≈ 2.41 µM) | > 128 | > 128 | 10/10 | MIC ([7]; M. gallisepticum, broth-dilution microtiter, read-out: MIC): 0.78 µg/mL (≈ 0.94 µM); MIC ([8]; P. multocida 60A, avian isolate, broth-dilution microtiter, read-out: MIC): 12.5 µg/mL (≈ 15.1 µM); MIC ([10]; P. multocida 17E, bovine isolate, broth-dilution microtiter, read-out: MIC): 6.25 µg/mL (≈ 7.53 µM); MIC [15, 37]: > 50 µg/mL; MIC [16, 38]: 0.78 µg/mL (≈ 0.94 µM); MIC [18, 39]: 6.25 µg/mL (≈ 7.53 µM); MIC ([20]; S. epidermidis EPI2, agar dilution, read-out: MIC): 4 µg/mL (≈ 4.82 µM); MIC [22, 40]: 16 µg/mL (≈ 19.3 µM); MIC ([26]; Streptococcus Group 9960, agar dilution, read-out: MIC): 2 µg/mL (≈ 2.41 µM); MIC ([28]; S. aureus X400, methicillin-resistant strain, agar dilution, read-out: MIC): 4 µg/mL (≈ 4.82 µM); MIC [29, 41]: 1 µg/mL (≈ 1.2 µM); MIC ([30]; Streptococcus Group D X66, agar dilution, read-out: MIC): 2 µg/mL (≈ 2.41 µM)
2 | CCC1OC(=O)CC(O)C(C)C(OC2OC(C)C(O)C(N(C)C)C2O)C(CC=O)CC(C)C(=O)C=CC(C)=CC1CNC(=O)[C@H](N)c1ccccc1 (single isomer, unassigned) [Compound 12, 23-Deoxy-23-N-(D-(-)-phenylglycyl)amino-OMT bis(trifluoroacetate) salt] | 0.5 | – | > 128 | 0.5 | – | 50 | 50 | 6.25 | 6.25 | 25 | 25 | 50 | 8 | 4 | > 128 | > 128 | 8 | > 128 | > 128 | 9/10 | MIC ([2]; H. influenzae Holt, ampicillin-sensitive strain, agar dilution, read-out: MIC): 16 µg/mL; MIC ([5]; H. influenzae R252, ampicillin-resistant strain, agar dilution, read-out: MIC): 16 µg/mL; ED50 ([33]; C203, po, read-out: ED50, Oral): > 100 mg/kg; ED50 [33, 42]: 6.2 mg/kg; MIC [7]: 3.12 µg/mL; MIC ([8]; 60A): 12.5 µg/mL; MIC ([10]; 17E): 12.5 µg/mL; MIC [15, 37]: > 50 µg/mL; MIC [16]: 3.12 µg/mL; MIC [18, 39]: 25 µg/mL; MIC ([20]; EPI2): 8 µg/mL; MIC [22, 40]: 16 µg/mL; MIC [26]: 8 µg/mL; MIC ([28]; X400): 8 µg/mL; MIC [29, 41]: 4 µg/mL; MIC [30]: 8 µg/mL
3 | CCC1OC(=O)CC(O)C(C)C(OC2OC(C)C(O)C(N(C)C)C2O)C(CC=O)CC(C)C(=O)C=CC(C)=CC1CNC(=O)Cc1ccccc1 (stereo not shown) [Compound 10, 23-Deoxy-23-N-(phenylacetyl)amino-OMT] | – | 2 (≈ 2.8 µM) | – | – | 2 (≈ 2.8 µM) | 12.5 (≈ 17.5 µM) | 25 (≈ 35 µM) | 0.19 (≈ 0.266 µM) | – | 25 (≈ 35 µM) | 12.5 (≈ 17.5 µM) | 12.5 (≈ 17.5 µM) | 0.5 (≈ 0.699 µM) | 0.5 (≈ 0.699 µM) | > 128 | > 128 | 1 (≈ 1.4 µM) | > 128 | > 128 | 3/10 | MIC [1]: 0.25 µg/mL (≈ 0.35 µM); MIC ([3]; E. coli TEM, agar dilution, read-out: MIC): 32 µg/mL (≈ 44.8 µM); MIC ([4]; C203): 0.25 µg/mL (≈ 0.35 µM); ED50 ([33]; C203, po, read-out: ED50, Oral): > 100 mg/kg; ED50 [33, 42]: 5.8 mg/kg; MIC [7]: 1.56 µg/mL (≈ 2.18 µM); MIC ([8]; 60A): 3.12 µg/mL (≈ 4.36 µM); MIC ([10]; 17E): 3.12 µg/mL (≈ 4.36 µM); MIC [12]: 0.78 µg/mL (≈ 1.09 µM); MIC [15]: 50 µg/mL (≈ 69.9 µM); MIC [16, 38]: 0.19 µg/mL (≈ 0.266 µM); MIC ([18]; 68C): 1.56 µg/mL (≈ 2.18 µM); MIC ([20]; EPI2): 1 µg/mL (≈ 1.4 µM); MIC ([22]; X26): 8 µg/mL (≈ 11.2 µM); MIC [26]: 0.5 µg/mL (≈ 0.699 µM); MIC ([28]; X400): 1 µg/mL (≈ 1.4 µM); MIC ([29]; EPI1): 0.25 µg/mL (≈ 0.35 µM); MIC [30]: 0.5 µg/mL (≈ 0.699 µM)

From patent US4459290A, “C-23-Modified derivatives of OMT, pharmaceutical compositions and method of use” (priority 1982, dated 1984)
